Measurements as given in PubChem BioAssay (NCI).
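GI50 is the concentration that inhibits growth by half. The concentration for full growth arrest is given as TGI.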

How the values were obtained:
Test in all cases: NCI anticancer screen, dose series, 384-well format
MCF7 breast = test system: MCF7 breast
OVCAR-3 ovarian = test system: OVCAR-3 ovarian
MALME-3M melanoma = test system: MALME-3M melanoma
SK-MEL-28 melanoma = test system: SK-MEL-28 melanoma
OVCAR-8 ovarian = test system: OVCAR-8 ovarian
RPMI-8226 leukemia = test system: RPMI-8226 leukemia
RXF 393 renal = test system: RXF 393 renal
HT29 colon = test system: HT29 colon
NCI-H23 lung = test system: NCI-H23 lung
MDA-MB-231 breast = test system: MDA-MB-231 breast
PC-3 prostate = test system: PC-3 prostate
IGROV1 ovarian = test system: IGROV1 ovarian
TK-10 renal = test system: TK-10 renal
OVCAR-5 ovarian = test system: OVCAR-5 ovarian
UACC-257 melanoma = test system: UACC-257 melanoma
HCT-15 colon = test system: HCT-15 colon
HL-60(TB) leukemia = test system: HL-60(TB) leukemia
786-0 renal = test system: 786-0 renal
CAKI-1 renal = test system: CAKI-1 renal
UO-31 renal = test system: UO-31 renal
SK-MEL-5 melanoma = test system: SK-MEL-5 melanoma
SK-MEL-2 melanoma = test system: SK-MEL-2 melanoma
NCI-H522 lung = test system: NCI-H522 lung
BT-549 breast = test system: BT-549 breast
NCI-H226 lung = test system: NCI-H226 lung
SF-539 CNS = test system: SF-539 CNS
HCT-116 colon = test system: HCT-116 colon
SK-OV-3 ovarian = test system: SK-OV-3 ovarian
HOP-92 NSCLC = test system: HOP-92 NSCLC
A549 NSCLC = test system: A549 NSCLC
U251 glioblastoma = test system: U251 glioblastoma
HCC-2998 colon = test system: HCC-2998 colon
MDA-MB-468 breast = test system: MDA-MB-468 breast
ACHN renal = test system: ACHN renal
SW-620 colon = test system: SW-620 colon
DU-145 prostate = test system: DU-145 prostate
MDA-MB-435 melanoma = test system: MDA-MB-435 melanoma
COLO 205 colon = test system: COLO 205 colon
SN12C renal = test system: SN12C renal
SR leukemia = test system: SR leukemia
HOP-62 NSCLC = test system: HOP-62 NSCLC
NCI/ADR-RES ovarian = test system: NCI/ADR-RES ovarian
T-47D breast = test system: T-47D breast
OVCAR-4 ovarian = test system: OVCAR-4 ovarian
LOX IMVI melanoma = test system: LOX IMVI melanoma
CCRF-CEM leukemia = test system: CCRF-CEM leukemia
MOLT-4 leukemia = test system: MOLT-4 leukemia
A498 renal = test system: A498 renal
NCI-H322M lung = test system: NCI-H322M lung
SNB-19 CNS = test system: SNB-19 CNS
UACC-62 melanoma = test system: UACC-62 melanoma
KM12 colon = test system: KM12 colon
K-562 leukemia = test system: K-562 leukemia
M14 melanoma = test system: M14 melanoma
SF-295 CNS = test system: SF-295 CNS
SF-268 CNS = test system: SF-268 CNS
NCI-H460 NSCLC = test system: NCI-H460 NSCLC

Work on `c1ccc(Cn2c(-c3ccc(OC[C@H](C4CCNCC4)n4c(-c5ccccc5)nc5ccccc54)cc3)nc3ccccc32)cc1` yielded a GI50 (MCF7 breast) of 1610 nM, a TGI (MCF7 breast) of 2980 nM and a GI50 (OVCAR-3 ovarian) of 1810 nM. It also gave a TGI (OVCAR-3 ovarian) of 3220 nM, a GI50 (MALME-3M melanoma) of 1790 nM and a TGI (MALME-3M melanoma) of 3180 nM. It also gave a GI50 (SK-MEL-28 melanoma) of 1830 nM, a TGI (SK-MEL-28 melanoma) of 3230 nM and a GI50 (OVCAR-8 ovarian) of 1810 nM. It also gave a TGI (OVCAR-8 ovarian) of 3220 nM, a GI50 (RPMI-8226 leukemia) of 971 nM and a TGI (RPMI-8226 leukemia) of 2140 nM. It also gave a GI50 (RXF 393 renal) of 1580 nM, a TGI (RXF 393 renal) of 2920 nM and a GI50 (HT29 colon) of 1660 nM. For the same compound, the TGI (HT29 colon) was 3040 nM, the GI50 (NCI-H23 lung) was 2230 nM and the TGI (NCI-H23 lung) was 3680 nM. It also gave a GI50 (MDA-MB-231 breast) of 1890 nM, a TGI (MDA-MB-231 breast) of 3300 nM and a GI50 (PC-3 prostate) of 1830 nM. The TGI (PC-3 prostate) was 3250 nM, the GI50 (IGROV1 ovarian) was 1650 nM and the TGI (IGROV1 ovarian) was 3020 nM. For the same compound, the GI50 (TK-10 renal) was 1850 nM, the TGI (TK-10 renal) was 3250 nM and the GI50 (OVCAR-5 ovarian) was 2030 nM. It also gave a TGI (OVCAR-5 ovarian) of 3470 nM, a GI50 (UACC-257 melanoma) of 1270 nM and a TGI (UACC-257 melanoma) of 2530 nM. It also gave a GI50 (HCT-15 colon) of 1860 nM, a TGI (HCT-15 colon) of 3280 nM and a GI50 (HL-60(TB) leukemia) of 1790 nM. The TGI (HL-60(TB) leukemia) was 3180 nM, the GI50 ([…]-0 renal) was 1730 nM and the TGI (786-0 renal) was 3120 nM. The GI50 (CAKI-1 renal) was 1840 nM, the TGI (CAKI-1 renal) was 3240 nM and the GI50 (UO-31 renal) was 1870 nM. It also gave a TGI (UO-31 renal) of 3270 nM, a GI50 (SK-MEL-5 melanoma) of 1820 nM and a TGI (SK-MEL-5 melanoma) of 3220 nM. It also gave a GI50 (SK-MEL-2 melanoma) of 1510 nM, a TGI (SK-MEL-2 melanoma) of 2840 nM and a GI50 (NCI-H522 lung) of 1890 nM. It also gave a TGI (NCI-H522 lung) of 3290 nM, a GI50 (BT-549 breast) of 1700 nM and a TGI (BT-549 breast) of 3080 nM. For the same compound, the GI50 (NCI-H226 lung) was 1770 nM, the TGI (NCI-H226 lung) was 3160 nM and the GI50 (SF-539 CNS) was 1660 nM. It also gave a TGI (SF-539 CNS) of 3030 nM, a GI50 (HCT-116 colon) of 1450 nM and a TGI (HCT-116 colon) of 2780 nM. For the same compound, the GI50 (SK-OV-3 ovarian) was 1680 nM, the TGI (SK-OV-3 ovarian) was 3060 nM and the GI50 (HOP-92 NSCLC) was 1630 nM. It also gave a TGI (HOP-92 NSCLC) of 2990 nM, a GI50 (A549 NSCLC) of 1840 nM and a TGI (A549 NSCLC) of 3260 nM. The GI50 (U251 glioblastoma) was 1590 nM, the TGI (U251 glioblastoma) was 2960 nM and the GI50 (HCC-2998 colon) was 1360 nM. The TGI (HCC-2998 colon) was 2650 nM, the GI50 (MDA-MB-468 breast) was 1970 nM and the TGI (MDA-MB-468 breast) was 3390 nM. It also gave a GI50 (ACHN renal) of 1840 nM, a TGI (ACHN renal) of 3250 nM and a GI50 (SW-620 colon) of 1740 nM. For the same compound, the TGI (SW-620 colon) was 3140 nM, the GI50 (DU-145 prostate) was 1860 nM and the TGI (DU-145 prostate) was 3280 nM. It also gave a GI50 (MDA-MB-435 melanoma) of 2000 nM, a TGI (MDA-MB-435 melanoma) of 3430 nM and a GI50 (COLO 205 colon) of 1820 nM. For the same compound, the TGI (COLO 205 colon) was 3230 nM, the GI50 (SN12C renal) was 1820 nM and the TGI (SN12C renal) was 3220 nM. For the same compound, the GI50 (SR leukemia) was 1170 nM, the TGI (SR leukemia) was 2410 nM and the GI50 (HOP-62 NSCLC) was 2020 nM. It also gave a TGI (HOP-62 NSCLC) of 3460 nM, a GI50 (NCI/ADR-RES ovarian) of 2400 nM and a TGI (NCI/ADR-RES ovarian) of 5200 nM. The GI50 (T-47D breast) was 1610 nM, the TGI (T-47D breast) was 2970 nM and the GI50 (OVCAR-4 ovarian) was 1510 nM. For the same compound, the TGI (OVCAR-4 ovarian) was 2850 nM, the GI50 (LOX IMVI melanoma) was 2330 nM and the TGI (LOX IMVI melanoma) was 3800 nM. It also gave a GI50 (CCRF-CEM leukemia) of 1260 nM, a TGI (CCRF-CEM leukemia) of 2520 nM and a GI50 (MOLT-4 leukemia) of 1160 nM. The TGI (MOLT-4 leukemia) was 2410 nM, the GI50 (A498 renal) was 1700 nM and the TGI (A498 renal) was 3080 nM. The GI50 (NCI-H322M lung) was 1690 nM, the TGI (NCI-H322M lung) was 3060 nM and the GI50 (SNB-19 CNS) was 1970 nM. For the same compound, the TGI (SNB-19 CNS) was 3400 nM, the GI50 (UACC-62 melanoma) was 1890 nM and the TGI (UACC-62 melanoma) was 3300 nM. It also gave a GI50 (KM12 colon) of 1800 nM, a TGI (KM12 colon) of 3210 nM and a GI50 (K-562 leukemia) of 1500 nM. It also gave a TGI (K-562 leukemia) of 2830 nM, a GI50 (M14 melanoma) of 1790 nM and a TGI (M14 melanoma) of 3180 nM. For the same compound, the GI50 (SF-295 CNS) was 1860 nM, the TGI (SF-295 CNS) was 3270 nM and the GI50 (SF-268 CNS) was 1800 nM. The TGI (SF-268 CNS) was 3200 nM, the GI50 (NCI-H460 NSCLC) was 1700 nM and the TGI (NCI-H460 NSCLC) was 3120 nM.
